What was measured:
Assay type in all cases: cell-based
Conditions in all cases: for Fold Activation: RLU vs DMSO, 23 hours
RAR beta = target: T1, RAR beta (Homo sapiens, UniProt P10826); assay: RAR beta Gal4-hybrid luciferase reporter cell agonist assay
T1 sequence (P10826 183-417 limits assumed): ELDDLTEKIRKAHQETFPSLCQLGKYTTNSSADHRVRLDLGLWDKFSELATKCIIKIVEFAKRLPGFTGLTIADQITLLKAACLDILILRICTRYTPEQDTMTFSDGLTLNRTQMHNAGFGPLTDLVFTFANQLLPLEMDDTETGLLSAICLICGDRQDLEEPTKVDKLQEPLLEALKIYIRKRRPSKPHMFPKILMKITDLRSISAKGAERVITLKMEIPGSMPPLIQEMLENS
Experimental: (§1) Reporter Cells (Indigo Biosciences, catalog #IB02201, IB02101, IB00821) used in the assays express a receptor hybrid in which the native N-terminal DNA binding domain (DBD) has been replaced with that of the yeast Gal4 DBD. The reporter gene, firefly luciferase, is functionally linked to the Gal4 upstream activation sequence (UAS). Receptor assays were performed as described in Steps 1 to 3 below.
(§2) Step 1: A suspension of Reporter Cells was prepared in Cell Recovery Medium (CRM: containing charcoal-stripped FBS) and 100 μl of the Reporter Cell suspension was dispensed into wells of a white 96-well assay plate.
(§3) Step 2: Test and reference compound master stocks were prepared as solutions at 1,000× concentration’ in DMSO relative to the final treatment concentration. This intermediate stock was subsequently diluted directly into INDIGO Biosciences's Compound Screening Medium (CSM; containing charcoal-stripped FBS) to generate ‘2×-concentration’ treatment media. 100 μL of each prepared treatment medium was dispensed into duplicate assay wells pre-dispensed with a 100 μL suspension of Reporter Cells, thereby achieving the desired final treatment concentrations. The concentration of residual DMSO in all assay wells was 0.1% for the test and reference compounds. Assay plates were incubated at 37° C., 5% CO2 and ˜70% humidity for 23 hours. DMSO control was used to determine background activity. Retinoic acid was used with its EC100 concentration to show 100% activity of each receptor. Retinol was used as positive control.
(§4) Step 3: Following the incubation period, treatment media were discarded and 100 μL/well of Luciferase Detection Reagent was added per well to determine receptor activity in terms of relative luminescence units (RLUs). Data processing: fold activation: [Ave RLU Test Cmpd/Ave RLU DMSO].

RAR gamma = RAR gamma Gal4-hybrid luciferase reporter cell agonist assay
Experimental: as §1, §2, §3, §4

RAR alpha = target: T2, RAR alpha (Homo sapiens, UniProt P10276); assay: RAR alpha Gal4-hybrid luciferase reporter cell agonist assay
T2 sequence (P10276 183-417 limits assumed): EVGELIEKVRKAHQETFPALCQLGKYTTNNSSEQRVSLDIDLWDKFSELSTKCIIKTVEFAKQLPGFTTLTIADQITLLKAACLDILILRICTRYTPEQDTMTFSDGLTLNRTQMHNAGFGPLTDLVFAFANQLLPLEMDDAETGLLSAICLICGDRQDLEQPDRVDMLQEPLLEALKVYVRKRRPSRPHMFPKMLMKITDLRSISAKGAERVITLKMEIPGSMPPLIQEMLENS
Experimental: as §1, §2, §3, §4

Compound	Fold Activation (RAR beta; RAR beta, 0.1 μM)	Fold Activation (RAR beta; RAR beta, 1 μM)	Fold Activation (RAR gamma; RAR gamma, 0.1 μM)	Fold Activation (RAR gamma; RAR gamma, 1 μM)	Fold Activation (RAR alpha; RAR alpha, 0.1 μM)	Fold Activation (RAR alpha; RAR alpha, 1 μM)	activity compared with retinol (in words) (RAR beta; RAR beta, at 0.1 μm and 0.01 μm)	agonist activity towards RAR beta (in words) (RAR beta; summary of Table 1)	activity compared with retinol (in words) (RAR gamma; RAR gamma, at 0.1 μm and 0.01 μm)	agonist activity towards RAR gamma (in words) (RAR gamma; summary of Table 1)	activity compared with retinol (in words) (RAR alpha; RAR alpha, at 0.1 μm and 0.01 μm)	agonist activity towards RAR alpha (in words) (RAR alpha; summary of Table 1)	Fold Activation (RAR gamma; RAR gamma, 0.1 μM (EC100 concentration of retinoic acid))
CC1=C(/C=C/C(C)=C/C=C/C(C)=C/CO)C(C)(C)CCC1 [Retinol, reference compound]	4.91	127	18.5	368	6.35	518							
C=C[C@](C)(/C=C/c1ccc(OC(=O)/C=C(C)/C=C/C=C(C)/C=C/C2=C(C)CCCC2(C)C)cc1)CCC=C(C)C [Bakuchoyl retinoate of Formula I]	12.6	169	41.0	541	26.0	979	more active than retinol	exhibited agonist activity	more active than retinol	exhibited agonist activity	more active than retinol	exhibited agonist activity	
CC1=C(/C=C/C(C)=C/C=C/C(C)=C/C(=O)O)C(C)(C)CCC1 [Retinoic acid, reference compound]													706
